# Source: US4379917A, “6"-(Substituted)-apramycin antibiotic derivatives and intermediates and starting materials therefor” (Eli Lilly and Company, priority 1981, dated 1983)
# Read-outs that look alike come from different tables or passages of the source.
# What was measured:
# Format in all cases: cell-based
# [1] = tested on: Pseudomonas aeruginosa X48; assay: MIC by standard agar dilution test
# [2] = tested on: Enterobacter cloacae EN453; assay: MIC by standard agar dilution test
# [3] = tested on: Proteus inconstans PV25; assay: MIC by standard agar dilution test; conditions: Providencia alcalifaciens
# [4] = tested on: Enterobacter aerogenes EB6; assay: MIC by standard agar dilution test; conditions: Klebsiella aerogenes
# [5] = tested on: Pseudomonas aeruginosa X239; assay: MIC by standard agar dilution test
# [6] = tested on: Pseudomonas aeruginosa 4276; assay: MIC by standard agar dilution test
# [7] = tested on: Proteus morganii PR2; assay: MIC by standard agar dilution test; conditions: Morganella morganii
# [8] = tested on: Pseudomonas aeruginosa Ps9; assay: MIC by standard agar dilution test
# [9] = tested on: Pseudomonas aeruginosa X528; assay: MIC by standard agar dilution test
# [10] = tested on: Pseudomonas aeruginosa PI23; assay: MIC by standard agar dilution test
# [11] = tested on: Serratia marcescens SE2; assay: MIC by standard agar dilution test
# [12] = tested on: Serratia marcescens X99; assay: MIC by standard agar dilution test
# [13] = tested on: Pseudomonas aeruginosa SF-2; assay: MIC by standard agar dilution test
# [14] = tested on: Proteus morganii PR1; assay: MIC by standard agar dilution test; conditions: Morganella morganii
# [15] = tested on: Enterobacter cloacae EB24; assay: MIC by standard agar dilution test
# [16] = tested on: Klebsiella pneumoniae KL2; assay: MIC by standard agar dilution test
# [17] = tested on: Pseudomonas aeruginosa Ps25; assay: MIC by standard agar dilution test
# [18] = tested on: Serratia marcescens SE3; assay: MIC by standard agar dilution test
# [19] = tested on: Pseudomonas aeruginosa Ps15; assay: MIC by standard agar dilution test
# [20] = tested on: Salmonella typhimurium; assay: MIC by standard agar dilution test; conditions: Salmonella enterica, read-out: Minimum Inhibitory Concentration
# [21] = tested on: Staphylococcus aureus 3074; assay: MIC by standard agar dilution test; conditions: Table II, read-out: Minimum Inhibitory Concentration
# Excerpt: (§1) The antibacterial activity of the antibiotic compounds of this invention is illustrated by the following in vitro and in vivo test data obtained with representative compounds. In Tables I and II the minimum inhibitory concentration (MIC) for representative compounds against a wide range of gram-positive and gram-negative bacteria is presented. The MIC values were obtained by the standard agar dilution test.
# [22] = tested on: Erwinia amylovora; assay: MIC by standard agar dilution test; conditions: Table II, read-out: Minimum Inhibitory Concentration
# Excerpt: as §1
# [23] = tested on: Pseudomonas solanacearum X185; assay: microbe, parasite or virus in culture; conditions: Ralstonia solanacearum, X185, read-out: Minimum Inhibitory Concentration
# [24] = tested on: Staphylococcus aureus 3055; assay: MIC by standard agar dilution test
# [25] = tested on: Streptococcus faecalis X66; assay: MIC by standard agar dilution test; conditions: Enterococcus faecalis, X66; Table II; agar dilution; read-out: Minimum Inhibitory Concentration
# [26] = tested on: Klebsiella pneumoniae KL14; assay: MIC by standard agar dilution test; conditions: KL14, read-out: Minimum Inhibitory Concentration
# [27] = tested on: Proteus morganii PR15; assay: MIC by standard agar dilution test; conditions: Morganella morganii, PR15; Table II; agar dilution; read-out: Minimum Inhibitory Concentration
# [28] = tested on: Salmonella typhosa SA12; assay: MIC by standard agar dilution test; conditions: Salmonella enterica, read-out: Minimum Inhibitory Concentration
# [29] = tested on: Citrobacter freundii CF17; assay: MIC by standard agar dilution test
# [30] = tested on: Escherichia coli EC14; assay: MIC by standard agar dilution test; conditions: EC14, Table II, agar dilution, read-out: Minimum Inhibitory Concentration
# [31] = tested on: Bordetella bronchiseptica 16; assay: MIC by standard agar dilution test
# [32] = tested on: Enterobacter aerogenes EB17; assay: MIC by standard agar dilution test; conditions: Klebsiella aerogenes, EB17, read-out: Minimum Inhibitory Concentration
# [33] = X48, read-out: Minimum Inhibitory Concentration
# [34] = EB6, read-out: Minimum Inhibitory Concentration
# [35] = X239, read-out: Minimum Inhibitory Concentration, Table 1
# [36] = Pseudomonas aeruginosa, 4276, read-out: Minimum Inhibitory Concentration
# [37] = PS9, read-out: Minimum Inhibitory Concentration
# [38] = X528, read-out: Minimum Inhibitory Concentration
# [39] = PI23, read-out: Minimum Inhibitory Concentration
# [40] = X99, read-out: Minimum Inhibitory Concentration
# [41] = SF2, read-out: Minimum Inhibitory Concentration
# [42] = EB24, read-out: Minimum Inhibitory Concentration
# [43] = PS25, read-out: Minimum Inhibitory Concentration
# [44] = PS15, read-out: Minimum Inhibitory Concentration
# [45] = EN453, Table 1, agar dilution, read-out: Minimum Inhibitory Concentration
# [46] = PV25, Table 1, agar dilution, read-out: Minimum Inhibitory Concentration
# [47] = PR2, Table 1, agar dilution, read-out: Minimum Inhibitory Concentration
# [48] = SE2, Table 1, agar dilution, read-out: Minimum Inhibitory Concentration
# [49] = PR1, Table 1, agar dilution, read-out: Minimum Inhibitory Concentration
# [50] = KL2, Table 1, agar dilution, read-out: Minimum Inhibitory Concentration
# [51] = SE3, Table 1, read-out: Minimum Inhibitory Concentration
smiles,measurement,setting,value
"CN[C@@H]1[C@@H](O[C@H]2O[C@H](CO[Si](C)(C)C(C)(C)C)[C@@H](N)[C@H](O)[C@H]2O)O[C@H]2C[C@@H](N)[C@@H](O[C@H]3[C@H](O)[C@@H](O)[C@H](N)C[C@@H]3N)O[C@@H]2[C@@H]1O [Test Compound 6, 6""-O-(tert-Butyldimethylsilyl)Apramycin]",MIC,[1]; [33],> 128 µg/mL
same,MIC,"[2]; EN453, read-out: Minimum Inhibitory Concentration",32 µg/mL
same,MIC,"[3]; PV25, read-out: Minimum Inhibitory Concentration",16 µg/mL
same,MIC,[4]; [34],32 µg/mL
same,MIC,[5]; [35],128 µg/mL
same,MIC,[6]; [36],128 µg/mL
same,MIC,"[7]; PR2, read-out: Minimum Inhibitory Concentration",64 µg/mL
same,MIC,[8]; [37],> 128 µg/mL
same,MIC,[9]; [38],64 µg/mL
same,MIC,[10]; [39],> 128 µg/mL
same,MIC,"[11]; SE2, read-out: Minimum Inhibitory Concentration",64 µg/mL
same,MIC,[12]; [40],32 µg/mL
same,MIC,[13]; [41],128 µg/mL
same,MIC,"[14]; PR1, read-out: Minimum Inhibitory Concentration",32 µg/mL
same,MIC,[15]; [42],16 µg/mL
same,MIC,"[16]; KL2, read-out: Minimum Inhibitory Concentration",32 µg/mL
same,MIC,[17]; [43],128 µg/mL
same,MIC,"[18]; SE3, read-out: Minimum Inhibitory Concentration, Table 1",64 µg/mL
same,MIC,[19]; [44],128 µg/mL
"CN[C@@H]1[C@@H](O[C@H]2O[C@H](COS(=O)(=O)c3ccc(C)cc3)[C@@H](N)[C@H](O)[C@H]2O)O[C@H]2C[C@@H](N)[C@@H](O[C@H]3[C@H](O)[C@@H](O)[C@H](N)C[C@@H]3N)O[C@@H]2[C@@H]1O [Test Compound 2, 6""-O-(Para-toluenesulfonyl)apramycin]",MIC,[1]; [33],> 128 µg/mL
same,MIC,"[20]; Table II, agar dilution",4 µg/mL
same,MIC,[2]; [45],16 µg/mL
same,MIC,[3]; [46],16 µg/mL
same,MIC,"[4]; EB6, Table 1, agar dilution, read-out: Minimum Inhibitory Concentration",16 µg/mL
same,MIC,"[5]; X239, Table II, read-out: Minimum Inhibitory Concentration",16 µg/mL
same,MIC,[5]; [35],> 128 µg/mL
same,MIC,[6]; [36],> 128 µg/mL
same,MIC,[7]; [47],16 µg/mL
same,MIC,[21],2 µg/mL
same,MIC,[22],2 µg/mL
same,MIC,[8]; [37],> 128 µg/mL
same,MIC,[9]; [38],> 128 µg/mL
same,MIC,[23],1 µg/mL
same,MIC,[10]; [39],> 128 µg/mL
same,MIC,[11]; [48],16 µg/mL
same,MIC,"[24]; Staphylococcus aureus, 3055, Table II, agar dilution, read-out: Minimum Inhibitory Concentration",< 0.5 µg/mL
same,MIC,"[12]; X99, Table 1, agar dilution, read-out: Minimum Inhibitory Concentration",16 µg/mL
same,MIC,[25],16 µg/mL
same,MIC,[26],2 µg/mL
same,MIC,[13]; [41],> 128 µg/mL
same,MIC,[27],16 µg/mL
same,MIC,[14]; [49],16 µg/mL
same,MIC,"[15]; EB24, Table 1, agar dilution, read-out: Minimum Inhibitory Concentration",16 µg/mL
same,MIC,[16]; [50],16 µg/mL
same,MIC,[28],1 µg/mL
same,MIC,"[29]; CF17, Table II, agar dilution, read-out: Minimum Inhibitory Concentration",4 µg/mL
same,MIC,[17]; [43],> 128 µg/mL
same,MIC,[18]; [51],16 µg/mL
same,MIC,"[18]; SE3, read-out: Minimum Inhibitory Concentration, Table II",32 µg/mL
same,MIC,[30],4 µg/mL
same,MIC,"[31]; Bordetella bronchiseptica, 16, read-out: Minimum Inhibitory Concentration",64 µg/mL
same,MIC,[19]; [44],> 128 µg/mL
"CN[C@@H]1[C@@H](O[C@H]2O[C@H](COS(C)(=O)=O)[C@@H](N)[C@H](O)[C@H]2O)O[C@H]2C[C@@H](N)[C@@H](O[C@H]3[C@H](O)[C@@H](O)[C@H](N)C[C@@H]3N)O[C@@H]2[C@@H]1O [Test Compound 1, 6""-O-(Methanesulfonyl)apramycin]",MIC,"[1]; X48, Table 1, agar dilution, read-out: Minimum Inhibitory Concentration",128 µg/mL
same,MIC,[20],4 µg/mL
same,MIC,[2]; [45],8 µg/mL
same,MIC,[3]; [46],8 µg/mL
same,MIC,[4]; [34],4 µg/mL
same,MIC,"[5]; X239, Table 1, read-out: Minimum Inhibitory Concentration",128 µg/mL
same,MIC,"[5]; X239, read-out: Minimum Inhibitory Concentration, Table II",4 µg/mL
same,MIC,"[6]; Pseudomonas aeruginosa, 4276, Table 1, agar dilution, read-out: Minimum Inhibitory Concentration",> 128 µg/mL
same,MIC,[7]; [47],32 µg/mL
same,MIC,[21],4 µg/mL
same,MIC,"[8]; PS9, Table 1, agar dilution, read-out: Minimum Inhibitory Concentration",> 128 µg/mL
same,MIC,[32],4 µg/mL
same,MIC,"[9]; X528, Table 1, agar dilution, read-out: Minimum Inhibitory Concentration",128 µg/mL
same,MIC,[23],1 µg/mL
same,MIC,"[10]; PI23, Table 1, agar dilution, read-out: Minimum Inhibitory Concentration",> 128 µg/mL
same,MIC,[11]; [48],8 µg/mL
same,MIC,"[24]; Staphylococcus aureus, 3055, read-out: Minimum Inhibitory Concentration",2 µg/mL
same,MIC,[12]; [40],4 µg/mL
same,MIC,[25],32 µg/mL
same,MIC,[26],4 µg/mL
same,MIC,"[13]; SF2, Table 1, agar dilution, read-out: Minimum Inhibitory Concentration",128 µg/mL
same,MIC,[27],32 µg/mL
same,MIC,[14]; [49],8 µg/mL
same,MIC,[15]; [42],4 µg/mL
same,MIC,[16]; [50],8 µg/mL
same,MIC,[28],4 µg/mL
same,MIC,"[29]; CF17, read-out: Minimum Inhibitory Concentration",4 µg/mL
same,MIC,"[17]; PS25, Table 1, agar dilution, read-out: Minimum Inhibitory Concentration",64 µg/mL
same,MIC,[18]; [51],8 µg/mL
same,MIC,"[18]; SE3, Table II, read-out: Minimum Inhibitory Concentration",16 µg/mL
same,MIC,[30],8 µg/mL
same,MIC,"[31]; Bordetella bronchiseptica, 16, Table II, agar dilution, read-out: Minimum Inhibitory Concentration",16 µg/mL
same,MIC,"[19]; PS15, Table 1, agar dilution, read-out: Minimum Inhibitory Concentration",128 µg/mL
